In series [1] the target is T1, vitamin D binding protein (DBP) (Homo sapiens, UniProt P02774).
T1 sequence (P02774 17-474): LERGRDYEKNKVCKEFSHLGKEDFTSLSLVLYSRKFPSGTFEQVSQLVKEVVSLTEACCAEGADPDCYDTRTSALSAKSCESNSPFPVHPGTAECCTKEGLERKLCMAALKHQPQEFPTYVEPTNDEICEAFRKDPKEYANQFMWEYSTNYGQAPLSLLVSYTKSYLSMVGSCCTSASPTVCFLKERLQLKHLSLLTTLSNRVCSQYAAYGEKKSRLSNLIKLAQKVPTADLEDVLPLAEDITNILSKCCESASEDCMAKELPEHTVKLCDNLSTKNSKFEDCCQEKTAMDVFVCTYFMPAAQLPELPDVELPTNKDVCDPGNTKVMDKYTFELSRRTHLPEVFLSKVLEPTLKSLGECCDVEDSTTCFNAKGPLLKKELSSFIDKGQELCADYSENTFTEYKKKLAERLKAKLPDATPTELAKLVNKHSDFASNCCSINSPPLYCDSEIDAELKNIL
Description: Screening of dissociation buffer components (release reagents) in the 25OHD ELISA. It counts as biochemical. Conditions: component of dissociation buffer. As to the method:
In order to optimize the ELISA 25OHD assay, components of the dissociation buffer, the assay buffer and the wash buffer, and conditions for performing various steps in the protocol were tested in the assay. Various reagents were tested alone or in combination for their effects on dissociation of 25OHD from DBP.
In addition, various types and concentrations of buffer salts (e.g., Tris, MES, citrate) were used in the dissociation buffers, assay buffers and wash buffers. Dissociation and wash buffers having a pH from 4-8 were tested. Dissocation was performed at different temperatures (RT, 37° C., 65° C.) and in different incubation vessels (polypropylene or polystyrene) and the competitive ELISA was performed using various different 25OHD conjugates.

Series [2] is classed as physicochemical.
Series [3] addresses T1, vitamin D binding protein (DBP). The experiment in a line: Release of bound 25OHD3 from DBP in serum samples at varied release reagent concentrations (ELISA). It counts as biochemical. Also on record: from tissue; host or cells: human serum. The note with it: for percent inhibition by released 25OHD: vs controls with no 25OHD. As to the method: Each buffer was diluted to provide dissociation buffers with multiple concentrations of a single release reagent.
For orientation: An ELISA detects its analyte on a solid surface through an enzyme-linked reagent.

For series [4] the target is unchanged. Described as above. It is filed as biochemical. The arrangement: human serum containing 20 or 40 ng/mL 25OHD3 were treated with the various dissociation buffers; from tissue; host or cells: human serum. Conditions: major release reagents in combination.

For `CCCC[n+]1ccc(C)cc1.[Cl-]`, the “release of 25OHD from DBP and maintaining 25OHD availability for antibody binding” value in series [1] is “effective and generally compatible with the assay”. Besides, in series [2], the “stability of dissociation buffer” value is “stable and could be stored at room temperature for weeks with no change in efficacy in the assay”. Besides, the “percent inhibition by released 25OHD” value amounted to 25% in series [3] (20 ng/mL 25OHD3 serum sample, high end of 6-14% reagent range); 12% in series [3] (20 ng/mL 25OHD3 serum sample, low end of 6-14% reagent range); 34% in series [3] (40 ng/mL 25OHD3 serum sample, high end of 6-14% reagent range); 16% in series [3] (40 ng/mL 25OHD3 serum sample, low end of 6-14% reagent range). Besides, the “best percentage of individual release reagent (greatest gains in 25OHD release)” value in series [3] (single release reagent in dissociation buffer) came out at 14%. Besides, the “optimal concentration for dissociation buffer formulation” value in series [4] is recorded as “about 10%”.

The record behind these values is patent US10197581B2, “Vitamin D assays” (Enzo Life Sciences, Inc., priority 2013, dated 2019).
